Data on two sequences can be found in patent US20070073039A1, “Peptides that inhibit viral infections” (priority 2005, published 2007).

For data set [1], the system named is HCV. In words: Binding/attachment/uptake of HCV RNA by Huh-7.5.1 cells. Type of data set: cell-based, Hepatitis C virus (JFH-1). To be noted: 18 μM; 4 hours at 37° C.; cell-associated HCV RNA. As for the experimental part:
To define the mechanism of antiviral activity of peptide #1, its ability to prevent the binding/attachment/uptake by cells of viral RNA in an infectious inoculum cells was examined. Huh-7.5.1 cells were seeded at 8000 cells per well in a 96-well plate. Sixteen hours later, the cells were incubated with HCV at MOI=0.1 in the presence or absence of peptide at a concentration of 18 μM. After adsorption for 4 hours at 37° C., the virus-peptide inoculum was removed. The cells were washed 2 times, lysed and subjected to RNA analysis. The HCV RNA transcript level was measured by real time quantitative polymerase chain reaction (RT-QPCR) assay and normalized to cellular GAPDH levels. Inhibitory activity was quantified by comparing the amount of cell-associated HCV RNA in cells exposed to the virus-peptide inocula versus the virus-DMSO control.

In data set [2] the test system is HCV. In words: Intracellular HCV RNA by real time RT-QPCR after infection of Huh-7.5.1 cells with and without peptide. Type of data set: cell-based, Hepatitis C virus (JFH-1). Here is the method:
To accurately quantify the inhibitory effect of the selected peptides on HCV infection, intracellular HCV RNA was measured after infection by real time RT-QPCR with and without peptide treatment. The peptide stock solution was diluted 1:100 and mixed with equal volume of viral supernatant (propagated from day 18 virus preparation post transfection) to a final concentration approximately 20 μM. The virus with peptide or 0.5% DMSO solvent control was then used to infect Huh-7.5.1 cells at a multiplicity of infection (MOI) of 0.1. After an adsorption for 4 hours at 37° C., the inoculum was removed. The cells were washed 2 times, overlaid with 120 μL fresh growth medium and incubated at 37° C. At the indicated time points, total cellular RNA was isolated by the guanidine thiocyanate method. The HCV RNA transcript level was measured by real time RT-QPCR with the primers 5′—
normalized to cellular GAPDH levels.
To define the antiviral action of peptide #1 (SEQ ID NO:43), the antiviral activity of a series of N-terminal and C-terminal truncations of peptide 1 was analyzed using the focus reduction assay and by measuring the reduction in intracellular HCV RNA as described.

Data set [3] can be described thus: Preliminary in vivo toxicity in mice. As for the experimental part: As a preliminary measurement of the in vivo cytotoxicity of the peptides 1, 2 and 3 (see Table 4) a group of three mice (BALB/c mice, 7 weeks old, about 23 g) were each injected with 92 μg L-type peptide 1 ( ˜4 mg/kg) in 200 μL PBS (spun 14,000 rpm for 3 minutes before injection). In the control group, each of three mice was given 200 μL PBS containing 5% DMSO. The mice were monitored for acute toxicity during the first 3 hours after injection.
No change in appearance, activity or behavior was observed. The mice were then weighed on days 0, 3, 5, 7 and 10. Peptide-injected mice gained weight at the same rate as the controls.

For data set [4], the system named is HCV. In words: HCV focus reduction assay. Type of data set: cell-based, Hepatitis C virus (JFH-1). Here is the method: To identify peptides that display antiviral activity against HCV infection, the peptide library was screened by an HCV focus reduction assay. The peptides were constituted in 100% DMSO at a final concentration 10 mg/mL, and stored in −20° C. The peptide stock solution was diluted 1:200 to a final concentration approximately 20 μM in complete DMEM growth medium containing 50 focus forming units (ffu) of HCV. The virus-peptide mixture was transferred to Huh-7.5.1 cells at a density of 8000 cells per well in a 96-well plate. After adsorption for 4 hours at 37° C., the inoculum was removed. The cells were washed 2 times, overlaid with 120 μL fresh growth medium and incubated at 37° C. After 3 days of culture, the cells were fixed with paraformaldehyde and immunostained with antibody against HCV nonstructural protein NS5A. The numbers of HCV foci were counted under fluorescent microscopy and the result is expressed as percentage (%) of mock with no peptide treatment but containing solvent 0.5% DMSO.
To determine whether the antiviral activity of peptide 1 is dependent on its primary amino acid sequence, four derivative peptides from peptide 1 were synthesized to a purity >95%. The four derivatives having the same composition of amino acids included (1) the reversed the sequence of peptide 1 (also called retro-peptide); (2) scrambled hydrophobic amino acids; (3) scrambled hydrophilic amino acids; and (4) a derivative in which the aspartic acid residues (D) were replaced with proline residues (P). The antiviral activity of the peptides was examined by HCV focus reduction assay at three peptide concentrations: 18 μM, 6 μM and 2 μM, as described above.

In data set [5] the test system is Dengue-2. In words: Dengue-2 infection of Vero cells, Intracellular FACS Assay. Type of data set: cell-based. To be noted: FIG. 18; 20 μM. Here is the method:
Intracellular FACS Assay: Vero cells were seeded for 24 h pre-infection in 6-well plates. Cells were exposed to Dengue-2 in the presence of increasing concentrations of peptide (or DMSO as control). Viruses and peptide were washed away 2 h post-infection. Cells were taken for intracellular staining 3 days post-infection. Cells were stained with appropriate isotype control, Dengue Env, Dengue capsid or tubulin antibodies. Cells were analyzed by FACS.

Data set [6] has as its system Dengue-2. In words: Dengue-2 infection of Vero cells, Enzyme-linked Immunosorbent Assay. Type of data set: cell-based. Conditions: 1.25 μM, 5 days.
The subject of data set [7] is Dengue-2. Described as above. Type of data set: cell-based. Conditions: for Inhibition of Dengue Infection, α-Capsid 9A7 / Inhibition of Dengue Infection, α-DEN ENV: Vero cells, 5 days. As for the experimental part: Enzyme-linked Immunosorbent Assay. Vero cells (80,000 cells/well/ml) were seeded for 24 h pre-infection in 24-well plates. Cells were exposed to Dengue-2 (derived from Vero cells) in the presence of increasing concentration of peptide (or DMSO as control). Viruses and peptide were not removed (cells were not washed) throughout the incubation. Infection was analyzed after 5 days using ELISA that measured the amounts of Dengue-2 capsid released in the supernatant of infected Vero cells.

For CTMLVCGDDLVVICESAG [Peptide 2], the “Blocking of viral binding/attachment/uptake” value in the data set on HCV [1] is recorded as “significantly blocks viral binding/attachment/uptake”. The “HCV RNA fold inhibition 24 h 25 μM” value with HCV [2] (24 h, 25 μM, Huh-7.5.1 cells, MOI 0.1, normalized to GAPDH) is on record as 86 fold. The “HCV RNA fold inhibition 72 h 25 μM” value in the data set on HCV [2] (72 h, 25 μM, Huh-7.5.1 cells, MOI 0.1, normalized to GAPDH) is recorded as 40 fold. The “In vivo toxicity observation” value in data set [3] (92 μg ( ˜4 mg/kg) in 200 μL PBS, acute toxicity first 3 hours, weight to day 10) was “Peptides 1, 2 and 3 are Nontoxic in C57BL/6 Mice”. The “Weight(g) (d.0)” value in data set [3] (day 0, ˜4 mg/kg injected) came to 25.3 g. The “Weight(g) (d.3)” value in data set [3] (day 3) is 25.6 g. Also, in data set [3] (day 5), the “Weight(g) (d.5)” value turned out to be 25.9 g. Further, in data set [3] (day 7), the “Weight(g) (d.7)” value worked out at 25.9 g. In addition, the “Weight(g) (d.10)” value in data set [3] (day 10) stood at 25.6 g. Also, the “Inhibition of HCV infection” value in the data set on HCV [4] (cell culture model of HCV infection) is recorded as “strongly inhibit HCV infection”. The “Fold Inhibition” value in the data set on HCV [4] (inhibition of HCV infection, peptide approximately 20 μM, Huh-7.5.1 cells, 3 days) turned out to be 100.0 fold. For the same sequence, in the data set on HCV [4] (number of HCV foci as % of mock (0.5% DMSO), peptide approximately 20 μM, Huh-7.5.1 cells, 3 days), the “% of Mock” value amounted to 1.0%. Further, the “Fold inhibition of HCV infection” value in the data set on HCV [4] (peptide library screen, approximately 20 μM) was “more than ten-fold”.

For SWLRDIWDWICEVL [^C-14mer], the “Inhibition of Dengue viral infection as detected by FACS” value in the data set with Dengue-2 [5] is listed as approximately 100%. Also, the “Fold Inhibition on HCV RNA (24 h)” value in the data set on HCV [2] (24 h, working concentration 18.4-27.5 μM per peptide) was determined as 20274.7 fold. The “Fold Inhibition on HCV RNA (72 h)” value in the data set with HCV [2] (72 h, working concentration 18.4-27.5 μM per peptide) is given as 237172.4 fold. Besides, the figures for the “Inhibition of Dengue Infection, α-DEN ENV” value in the data set on Dengue-2 [6], with Dengue-2 [7] (5 μM) and with Dengue-2 [7] (20 μM) were 0%, 29.65% and 97.8%, respectively. Moreover, the “Inhibition of Dengue Infection, α-Capsid 9A7” value in the data set on Dengue-2 [7] (1.25 μM) amounted to 11.4%; with Dengue-2 [7] (5 μM), 22.7%; in the data set with Dengue-2 [7] (20 μM), 98.3%. Also, the “Inhibition of Dengue viral infection as detected by ELISA” value in the data set on Dengue-2 [7] (FIG. 17, 20 μM) is given as approximately 100%. Also, the “Focus Reduction (72 h)” value in the data set with HCV [4] (72 h, working concentration 18.4-27.5 μM per peptide, Mock 51) is 0.
